Values joined by “and” are separate entries in the source; they are usually repeats but may differ in a detail not shown here. Identical values can stand only once.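 Interpolation was linear, between the two tested concentrations surrounding the appropriate level; five concentrations were tested over 48 hours in 96-well plates. At the GI50, growth is halved. TGI marks complete inhibition of growth.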
Columns and labels:
Assay in all cases: NCI tumour cell line growth inhibition, 48 h
UACC-62 melanoma = tested on: UACC-62 melanoma
MCF7 breast = tested on: MCF7 breast
MDA-MB-435 = tested on: MDA-MB-435
NCI-H226 lung = tested on: NCI-H226 lung
SN12C renal = tested on: SN12C renal
HL-60(TB) leukemia = tested on: HL-60(TB) leukemia
SF-539 CNS = tested on: SF-539 CNS
SK-MEL-2 melanoma = tested on: SK-MEL-2 melanoma
MALME-3M melanoma = tested on: MALME-3M melanoma
SK-MEL-28 melanoma = tested on: SK-MEL-28 melanoma

Question: How did the TGI (UACC-62 melanoma) turn out when N#Cc1c(-c2ccccc2)c2c([nH]c1=O)-c1cc([N+](=O)[O-])ccc1CCC2 was run?
Answer: 37.3 µM

Question: What about the TGI (MCF7 breast) of the same molecule?
Answer: 71.8 µM

Question: What about the TGI (MDA-MB-435) of the same molecule?
Answer: > 100 µM

Question: And the TGI (NCI-H226 lung)?
Answer: 71.6 µM

Question: And the TGI (SN12C renal)?
Answer: > 100 µM

Question: What about the TGI (HL-60(TB) leukemia) of the same molecule?
Answer: 72.3 µM

Question: What about the TGI (SF-539 CNS) of the same molecule?
Answer: 82.5 µM

Question: What about the TGI (SK-MEL-2 melanoma) of the same molecule?
Answer: 59.3 µM

Question: And the TGI (MALME-3M melanoma)?
Answer: > 100 µM

Question: What about the TGI (SK-MEL-28 melanoma) of the same molecule?
Answer: > 100 µM

Question: With O=C(CC(C(=O)c1ccco1)c1ccco1)c1ccco1 (configuration not stated) as the molecule, how does the TGI (UACC-62 melanoma) read?
Answer: > 100 µM

Question: What about the TGI (MCF7 breast) of the same molecule?
Answer: > 100 µM

Question: What about the TGI (MDA-MB-435) of the same molecule?
Answer: > 100 µM

Question: And the TGI (NCI-H226 lung)?
Answer: > 100 µM

Question: What about the TGI (SN12C renal) of the same molecule?
Answer: > 100 µM

Question: And the TGI (HL-60(TB) leukemia)?
Answer: > 100 µM

Question: What about the TGI (SF-539 CNS) of the same molecule?
Answer: > 100 µM

Question: What about the TGI (SK-MEL-28 melanoma) of the same molecule?
Answer: > 100 µM

Question: Which TGI (UACC-62 melanoma) does the source give for S=C1NC2=C(CSC/C2=C\c2ccccc2)C(c2ccccc2)N1 (configuration not stated) here?
Answer: > 100 µM

Question: And the TGI (MCF7 breast)?
Answer: > 100 µM

Question: And the TGI (NCI-H226 lung)?
Answer: > 100 µM

Question: What about the TGI (SN12C renal) of the same molecule?
Answer: > 100 µM

Question: What about the TGI (HL-60(TB) leukemia) of the same molecule?
Answer: 44.5 µM

Question: What about the TGI (SF-539 CNS) of the same molecule?
Answer: > 100 µM

Question: What about the TGI (SK-MEL-2 melanoma) of the same molecule?
Answer: > 100 µM

Question: What about the TGI (MALME-3M melanoma) of the same molecule?
Answer: 99.4 µM

Question: And the TGI (SK-MEL-28 melanoma)?
Answer: > 100 µM

Question: For C=C1C(=O)C23C(O)CC4C5(C)CCCC4(C(O)OC5)C2C(OC(C)=O)CC1C3O (configuration not stated), which TGI (UACC-62 melanoma) is on record?
Answer: 19.8 µM

Question: And the TGI (NCI-H226 lung)?
Answer: 37.1 µM

Question: And the TGI (SN12C renal)?
Answer: 24.3 µM

Question: And the TGI (SF-539 CNS)?
Answer: 25.8 µM

Question: What about the TGI (SK-MEL-2 melanoma) of the same molecule?
Answer: 30.3 µM

Question: What about the TGI (MALME-3M melanoma) of the same molecule?
Answer: 28.8 µM

Question: And the TGI (SK-MEL-28 melanoma)?
Answer: 22.7 µM

Question: Which results are given for C=CCN1C(=O)/C(=C/c2ccc(C)cc2)N=C1SC1OC(COC(C)=O)C(OC(C)=O)C(OC(C)=O)C1OC(C)=O (configuration not stated)?
Answer: GI50 (UACC-62 melanoma): 3.83 µM and 37.1 µM; TGI (UACC-62 melanoma): > 100 µM; TGI (MCF7 breast): > 100 µM; GI50 (MDA-MB-435): > 70.6 µM and 7.32 µM; TGI (MDA-MB-435): > 100 µM and 21.4 µM; GI50 (NCI-H226 lung): > 100 µM and 20.9 µM; TGI (NCI-H226 lung): > 100 µM and 85.6 µM; TGI (SN12C renal): > 100 µM; TGI (HL-60(TB) leukemia): > 100 µM; GI50 (SF-539 CNS): 16.7 µM and 41.6 µM; TGI (SF-539 CNS): > 100 µM; GI50 (SK-MEL-2 melanoma): > 100 µM and 38.3 µM; TGI (SK-MEL-2 melanoma): > 100 µM; TGI (MALME-3M melanoma): > 100 µM; TGI (SK-MEL-28 melanoma): > 100 µM

Question: CC(C)C(N)C(=O)NC(CCC(=O)NCCCCC(N)C(=O)NCCCNc1ccc([N+](=O)[O-])c2[nH]c3ccccc3c(=O)c12)C(N)=O (configuration not stated) was tested. Which TGI (UACC-62 melanoma) did it give?
Answer: > 100 µM

Question: What about the TGI (MDA-MB-435) of the same molecule?
Answer: > 100 µM

Question: What about the TGI (NCI-H226 lung) of the same molecule?
Answer: > 100 µM

Question: What about the TGI (SK-MEL-2 melanoma) of the same molecule?
Answer: > 100 µM

Question: What about the TGI (SK-MEL-28 melanoma) of the same molecule?
Answer: > 100 µM

Question: For O=C(O)CCCCCCCCC(=O)O, which TGI (UACC-62 melanoma) is on record?
Answer: > 500 µM

Question: And the TGI (MCF7 breast)?
Answer: > 500 µM

Question: What about the TGI (NCI-H226 lung) of the same molecule?
Answer: > 500 µM

Question: And the TGI (SN12C renal)?
Answer: > 500 µM

Question: What about the TGI (HL-60(TB) leukemia) of the same molecule?
Answer: > 281 µM

Question: And the TGI (SF-539 CNS)?
Answer: > 79.3 µM

Question: What about the TGI (SK-MEL-2 melanoma) of the same molecule?
Answer: > 500 µM

Question: And the TGI (MALME-3M melanoma)?
Answer: > 500 µM

Question: And the TGI (SK-MEL-28 melanoma)?
Answer: > 500 µM

Question: For Cc1c(-c2ccccc2)[nH]n(C2=NCCN2)c1=O, which TGI (UACC-62 melanoma) is on record?
Answer: > 100 µM

Question: What about the TGI (MCF7 breast) of the same molecule?
Answer: > 100 µM

Question: What about the TGI (MDA-MB-435) of the same molecule?
Answer: > 100 µM

Question: And the TGI (NCI-H226 lung)?
Answer: > 100 µM

Question: What about the TGI (HL-60(TB) leukemia) of the same molecule?
Answer: > 100 µM

Question: And the TGI (SF-539 CNS)?
Answer: > 100 µM

Question: And the TGI (SK-MEL-2 melanoma)?
Answer: > 100 µM

Question: And the TGI (MALME-3M melanoma)?
Answer: > 100 µM

Question: How did the TGI (UACC-62 melanoma) turn out when CC1=NNC(=O)C1C1CC(c2c[nH]c3ccccc23)=NN=C1Cl (configuration not stated) was run?
Answer: > 100 µM

Question: What about the TGI (MDA-MB-435) of the same molecule?
Answer: > 100 µM

Question: And the TGI (NCI-H226 lung)?
Answer: > 100 µM

Question: What about the TGI (SN12C renal) of the same molecule?
Answer: > 100 µM

Question: What about the TGI (HL-60(TB) leukemia) of the same molecule?
Answer: 53.6 µM

Question: What about the TGI (SF-539 CNS) of the same molecule?
Answer: > 100 µM

Question: What about the TGI (SK-MEL-2 melanoma) of the same molecule?
Answer: > 100 µM

Question: And the TGI (MALME-3M melanoma)?
Answer: > 100 µM

Question: What about the TGI (SK-MEL-28 melanoma) of the same molecule?
Answer: > 100 µM

Question: O=C(NN1C(=O)CSC1c1cccc(F)c1)c1ccncc1 (configuration not stated) was tested. Which TGI (UACC-62 melanoma) did it give?
Answer: > 100 µM

Question: What about the TGI (SN12C renal) of the same molecule?
Answer: > 100 µM

Question: What about the TGI (HL-60(TB) leukemia) of the same molecule?
Answer: > 100 µM

Question: And the TGI (SF-539 CNS)?
Answer: > 100 µM

Question: What about the TGI (SK-MEL-2 melanoma) of the same molecule?
Answer: > 100 µM

Question: And the TGI (MALME-3M melanoma)?
Answer: > 100 µM

Question: What about the TGI (SK-MEL-28 melanoma) of the same molecule?
Answer: > 100 µM

Question: What does the source list for c1ccc([P+](CCCCCCCC[P+](c2ccccc2)(c2ccccc2)c2ccccc2)(c2ccccc2)c2ccccc2)cc1?
Answer: TGI (UACC-62 melanoma): > 94.4 µM; TGI (MCF7 breast): > 87.5 µM; TGI (MDA-MB-435): > 68.4 µM; TGI (NCI-H226 lung): > 100 µM; TGI (SN12C renal): > 100 µM; TGI (HL-60(TB) leukemia): > 31.8 µM; TGI (SF-539 CNS): 19.6 µM; TGI (SK-MEL-2 melanoma): 24.7 µM; TGI (MALME-3M melanoma): > 100 µM; TGI (SK-MEL-28 melanoma): > 100 µM

Reference: PubChem BioAssay (NCI)
